Test results taken from patent US20120077802A1 (SUNOVION PHARMACEUTICALS INC., priority 2009, published 2012).
Where two headings read alike, the source gives them in different places.

Key:
[1] = target: T1, human histamine H3 receptor (Homo sapiens, UniProt Q9Y5N1); assay: H3 GTPγS assay (SPA method), histamine H3 in vitro assay; format: biochemical
T1 construct: host or cells: cells expressing the human H3 receptor

[2] = In vivo rat PK, brain exposures; details: adult male rats, oral gavage in water; for concentration at 1 hr: 1 hr after dosing, read-out: Compound Concentration (ng/g rat brain) 1 hr; for concentration at 24 hr: 24 hr after dosing, read-out: Compound Concentration (ng/g rat brain) 24 hr
Procedure: In vivo rat PK studies were performed using certain compounds provided herein. In one embodiment, a compound was dissolved in water and was administered to adult male rats (n=3 per time point) by oral gavage at a dose of 3 to 10 mg/kg. The plasma samples were collected and brain tissues were harvested at various time points after dosing, e.g., 15 min, 30 min, 1 hr, 2 hr, and 24 hr after dosing. The PK samples were analyzed; and the compound concentrations in these samples were quantified by LC/MS. The pKa values of the R^6 moiety of the compounds were calculated using ACD Lab (Version 12.01).

[3] = GTPγ[35S] SPA, membranes of cells expressing human H3 receptor, in one embodiment HCl salts tested, read-out: Potency (functional potency as indicated by IC50)

T1 sequence (Q9Y5N1 whole entry): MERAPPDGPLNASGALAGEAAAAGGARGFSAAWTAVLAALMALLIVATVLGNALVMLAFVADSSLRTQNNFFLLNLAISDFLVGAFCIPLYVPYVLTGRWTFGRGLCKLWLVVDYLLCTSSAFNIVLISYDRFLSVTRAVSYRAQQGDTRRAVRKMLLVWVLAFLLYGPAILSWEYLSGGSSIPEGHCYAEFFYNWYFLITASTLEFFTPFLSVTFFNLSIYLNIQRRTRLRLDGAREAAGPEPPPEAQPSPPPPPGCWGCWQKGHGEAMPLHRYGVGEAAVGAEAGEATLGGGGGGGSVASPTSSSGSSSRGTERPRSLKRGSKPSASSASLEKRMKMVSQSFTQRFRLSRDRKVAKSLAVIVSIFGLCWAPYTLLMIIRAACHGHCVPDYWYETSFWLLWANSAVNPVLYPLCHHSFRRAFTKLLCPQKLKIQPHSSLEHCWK

N#Cc1ccc(-c2ccc3c(c2)CC2(CCN(C4CCC4)CC2)O3)cc1 [Compound 5, 4-(1′-Cyclobutyl-3H-spiro[benzofuran-2,4′-piperidine]-5-yl)benzonitrile]
IC50 [1, 3]: ≤ 10 nM | concentration at 1 hr ([2]; 5 mg/kg): 3100 ng/g | concentration at 24 hr ([2]; 5 mg/kg): 400 ng/g

c1cc2c(cc1CN1CCOCC1)CC1(CCN(C3CCC3)CC1)O2 [Compound 40, 1′-Cyclobutyl-5-(morpholinomethyl)-3H-spiro[benzofuran-2,4′-piperidine]]
IC50 [1, 3]: ≤ 10 nM | concentration at 1 hr ([2]; 3 mg/kg): 900 ng/g | concentration at 24 hr ([2]; 3 mg/kg): 140 ng/g

c1cc2c(cc1CN1CCCC1)CC1(CCN(C3CCC3)CC1)O2 [Compound 41, 1′-Cyclobutyl-5-(pyrrolidin-1-ylmethyl)-3H-spiro[benzofuran-2,4′-piperidine]]
IC50 [1, 3]: ≤ 10 nM | concentration at 1 hr ([2]; 3 mg/kg): < 25 ng/g | concentration at 24 hr ([2]; 3 mg/kg): 450 ng/g

c1cn2cc(-c3ccc4c(c3)CC3(CCN(C5CCC5)CC3)O4)ccc2n1 [Compound 30, 1′-Cyclobutyl-5-(imidazo[1,2-a]pyridin-6-yl)-3H-spiro[benzofuran-2,4′-piperidine]]
IC50 [1, 3]: ≤ 10 nM | concentration at 1 hr ([2]; 10 mg/kg): 5200 ng/g | concentration at 24 hr ([2]; 10 mg/kg): 250 ng/g

CN(C)Cc1ccc2c(c1)CC1(CCN(C3CCC3)CC1)O2 [Compound 39, 1-(1′-Cyclobutyl-3H-spiro[benzofuran-2,4′-piperidine]-5-yl)-N,N-dimethylmethanamine]
IC50 [1, 3]: ≤ 10 nM

c1ccc2c(c1)ncn2-c1ccc2c(c1)CC1(CCN(C3CCC3)CC1)O2 [Compound 32, 5-(1H-Benzo[d]imidazol-1-yl)-1′-cyclobutyl-3H-spiro[benzofuran-2,4′-piperidine]]
IC50 [1, 3]: ≤ 10 nM

N#Cc1ccc(-c2ccc3c(c2)CC2(CCN(C4CCCC4)CC2)O3)cc1 [Compound 17, 4-(1′-Cyclopentyl-3H-spiro[benzofuran-2,4′-piperidine]-5-yl)benzonitrile]
IC50 [1, 3]: ≤ 100 nM

COc1ccnc(-c2ccc3c(c2)CC2(CCN(C4CCC4)CC2)O3)n1 [Compound 28, 1′-Cyclobutyl-5-(4-methoxypyrimidin-2-yl)-3H-spiro[benzofuran-2,4′-piperidine]]
IC50 [1, 3]: ≤ 100 nM

Cn1ncc2ccc(-c3ccc4c(c3)CC3(CCN(C5CCC5)CC3)O4)cc21 [Compound 65, 1′-Cyclobutyl-5-(1-methyl-1H-indazol-6-yl)-3H-spiro[benzofuran-2,4′-piperidine]]
IC50 [1, 3]: ≤ 10 nM

CN1CCC(N2CCC3(CC2)Cc2ccccc2O3)CC1 [Compound 2, 1′-(1-Methylpiperidin-4-yl)-3H-spiro[benzofuran-2,4′-piperidine]]
IC50 ([1]; histamine H3 in vitro assay, read-out: IC50 values): > 1000 nM

c1cc2c(cc1CN1CCOCC1)CC1(CCN3CCCC3C1)O2 (stereo not shown) [Compound 92, 5-(Morpholinomethyl)-2′,3′,5′,6′,8′,8a′-hexahydro-1′H,3H-spiro[benzofuran-2,7′-indolizine]]
IC50 [1, 3]: ≤ 10 nM

c1cc2c(cc1-c1cnc3[nH]ncc3c1)CC1(CCN(C3CCC3)CC1)O2 [Compound 64, 1′-Cyclobutyl-5-(1H-pyrazolo[3,4-b]pyridin-5-yl)-3H-spiro[benzofuran-2,4′-piperidine]]
IC50 [1, 3]: ≤ 10 nM

Brc1ccc2c(c1)CC1(CCCN(C3CCC3)CC1)O2 (stereo not shown) [Compound 47, 5′-Bromo-1-cyclobutyl-3′H-spiro[azepane-4,2′-benzofuran]]
IC50 [1, 3]: ≤ 1000 nM

CN1CCC(N2CCC3(CC2)Cc2cc(-c4ccc(CN)cc4)ccc2O3)CC1 [Compound 15, (4-(1′-(1-Methylpiperidin-4-yl)-3H-spiro[benzofuran-2,4′-piperidine]-5-yl)phenyl)methanamine]
IC50 [1, 3]: ≤ 100 nM
